Test results from patent US20240075031A1 (HHT Foundation International, Inc., priority 2020, published 2024).
Like-named read-outs stand apart in the source and are kept apart here.

Legend:
[1] = system: transfusion-dependent adults with HHT (epistaxis and/or GI bleeding); test: Single-center pazopanib treatment pathway for severe bleeding and transfusion-dependent anemia in HHT; details: for RBC units transfused, median (IQR): pretreatment 3 months 16.0 (9.5-22.0); for patients with transferrin saturation ≥20%: no patient at baseline
Description: In some embodiments, and still referring to FIG. 1, subjects may undergo follow-up clinical visits with vital signs, laboratory evaluations [complete blood count with white-cell differential, serum ferritin, iron and transferrin saturation, complete metabolic panel including liver function testing (transaminases, bilirubin, and alkaline phosphatase), serum phosphorous, urinalysis, and thyroid-stimulating hormone levels], electrocardiogram, and ESS calculations at a preconfigured time interval such as but not limited to 1 month, 2 months, 3 months, 4 months, 5 months, 6 months, and the like thereof per the pathway, with additional laboratory testing and visits as indicated.
In some embodiments, one or more secondary endpoints may include hemoglobin concentrations, epistaxis severity scores, iron infusions, baseline serum ferritin, and/or transferrin saturation.
Baseline and on-treatment hemoglobin values were drawn at clinical nadir (just prior to a scheduled transfusion) to minimize any impact of transfusion on the value. If more than one value was measured in a given 3-month period, the average value for that period was documented for analysis.
Now referring to FIG. 3B, three-month ESS was collected by the treating physician at treatment initiation and visits at 3, 6, 9, and 12 months on-treatment.
Now referring to FIG. 3C, a number of RBC units transfused in the 3 months of pretreatment were compared with the number of units transfused at each 3-month time interval on-treatment (1-3, 4-6, 7-9, and 10-12 months). The same analysis was performed for the total milligrams of elemental iron administered by IV infusion.
Baseline and on-treatment iron studies were drawn at nadir (prior to iron infusion or RBC transfusion, if either was given) to minimize any impact of recent iron infusion or RBC transfusion on the values.

[2] = parameters: AUC.0-24, Mean: unit not given beside the values; details: historical values, Hurwitz 2009; 50 mg SD; cited from earlier work
[3] = 6 patient PK study, 50 mg SD, powder in capsule (disclosed method); format: in vivo, patients; details: for AUC / Cmax: 50 mg
Description: In some embodiments, may be similar to the results expected of a crushed tablet. No reduction in the standard error (SE), but only 6 patients may not be adequate to see this range of exposures decrease. An improvement with powder in capsules is that the variation in exposure should also be truncated based on prior crushed tablet study.

[4] = disclosed method, 6 patients, 50 mg SD

What does the source list for `Cc1ccc(Nc2nccc(N(C)c3ccc4c(C)n(C)nc4c3)n2)cc1S(N)(=O)=O` [pazopanib]?
RBC units transfused, median (IQR) ([1]; 1-3 months of on-treatment): 0.0 (0.0-1.0) units; elemental iron infused, median (IQR) ([1]; 1-3 months on-treatment, pretreatment 3 months 4500 (2145-7260)): 0 (0-1500) milligrams; patients with freedom from anemia (Hgb≥11 g/dL) ([1]; 3 months): 15%; RBC units transfused, median (IQR) ([1]; 4-6, 7-9, and 10-12 months of on-treatment): 0.0 (0.0-0.0) units; elemental iron infused, median (IQR) ([1]; 4-6 months on-treatment): 0 (0-1260) milligrams; patients with freedom from anemia (Hgb≥11 g/dL) ([1]; 6 months): 85%; patients with transferrin saturation ≥20% ([1]; 6 months, 8 patients): 62%; elemental iron infused, median (IQR) ([1]; 7-9 months on-treatment): 0 (0-1260) milligrams; patients with freedom from anemia (Hgb≥11 g/dL) ([1]; 9 months): 85%; elemental iron infused, median (IQR) ([1]; 10-12 months on-treatment): 0 (0-510) milligrams; patients with freedom from anemia (Hgb≥11 g/dL) ([1]; 12 months): 92%; patients not requiring any local hemostatic procedures after initiating treatment ([1]; 12 months on-treatment, 9 patients): 69%; patients with transferrin saturation ≥20% ([1]; 12 months, 7 patients): 54%; patients achieving RBC transfusion independence ([1]; at 3 months of treatment, 10 of 13 patients): 77%; remaining patients achieving RBC transfusion independence ([1]; at 6 months of treatment, 3 of 13 patients): 23%; patients entirely RBC transfusion free ([1]; during the 12 months following pazopanib initiation, 9 of 13 patients): 69%; number of local hemostatic procedures, median (range) ([1]; during the 12 months of on-treatment, 12 months pretreatment 4 (1-5)): 0 (0-2); patients achieving RBC transfusion independence per Gale criteria ([1]; first year of pazopanib treatment, 13 patients analysed): 13 patients; transferrin saturation, median (IQR) ([1]; on-treatment (average of values at 6 and 12 months), baseline 9% (5-11%)): 23%; serum ferritin, median (IQR) ([1]; on-treatment (average of values at 6 and 12 months), baseline 31 (16-71)): 122 (79-154) ng/mL; AUC.0-24, Mean [2]: 51.8; C24, Mean [2]: 1.5; Tmax, median [2]: 3.0/; increase in the Area Under the Curve (AUC) from prior publications of comparable dosing ([3]; capsule enclosing a powder substance): 20-25%; C24, GeoMean [3, 4]: 1.90; C24, Mean [3, 4]: 2.09; AUC ([3]; human, plasma, oral, disclosed method, 6 patients, 50 mg SD, read-out: AUC.0-24, GeoMean): 59800 ng·h/mL; AUC ([3]; human, plasma, oral, disclosed method, 6 patients, 50 mg SD, read-out: AUC.0-24, Mean): 64400 ng·h/mL; Cmax ([3]; human, plasma, oral, disclosed method, 6 patients, 50 mg SD, read-out: Cmax, GeoMean): 3820 ng/mL; Cmax ([3]; human, plasma, oral, disclosed method, 6 patients, 50 mg SD, read-out: Cmax, Mean): 4120 ng/mL; Tmax ([3]; human, plasma, oral, disclosed method, 6 patients, 50 mg SD, read-out: Tmax, median): 4.5 h
